According to patent US20240025856A1, “1,2,3,4-TETRAHYDROQUINOLINE DERIVATIVES AS INHIBITORS OF THE YAP/TAZ-TEAD ACTIVATION FOR TREATING CANCER” (KATHOLIEKE UNIVERSITEIT LEUVEN, priority 2020, published 2024):

Legend:
Format in all cases: cell-based
[1] = tested on: NCI-1H226; assay: Mesothelioma cell line proliferation assay, H226 (ATPlite); conditions: Homo sapiens, NCI-H226, 144 h, 6 days with compound
Experimental: (§1) Mesothelioma cell lines, NCI-1H226 and NCI-1H2052 (all sourced from the ATCC cell culture collection) are plated in 96-well plates (Corning® 96 Well White Polystyrene Microplate clear flat bottom, white polystyrene (TC-Treated)), at 1500 cells/well in full medium (RPMI 1640 ATCC modification with L-glutamine, HEPES, Phenol Red, Sodium Pyruvate, High glucose, Low sodium bicarbonate and 10% fetal bovine serum). Cells are incubated overnight at 37° C. in an incubator with 5% C02. Then compounds, dissolved in DMSO, are added in dose-response. Cells are incubated with compound dilutions for another 6 days at 37° C. in an incubator with 5% C02. Cell viability is quantitated using the ATPlite kit (Perkin-Elmer) and the luminescence is read-out using an Envision instrument (Perkin-Elmer). The amount of relative light units produced using the ATPlite kit is used to calculated percent of inhibition.
(§2) The activities of some example compounds are depicted in the table below. The activity ranges A, B and C refer to EC50 values in the mesothelioma cell line proliferation assay as described as follows: “A”: EC50<1 μM; “B”: 1 μM s EC50≤10 μM and “C”: EC50≥10 μM; NT: not tested.

[2] = tested on: NCI-1H2052; assay: Mesothelioma cell line proliferation assay, H2052 (ATPlite); conditions: Homo sapiens, NCI-H2052, 144 h, 6 days with compound, read-out: H2025 (EC50)
Experimental: as §1, §2

[3] = tested on: YAP/TAZ-TEAD transcription; assay: Reporter gene assay for measuring the inhibition of YAP/TAZ-TEAD transcription (TEAD-responsive element luciferase reporter in Hek293T cells); conditions: Hek293T cells transiently transfected with TEAD-responsive element luciferase reporter, 24 hours incubation
Summary of the method: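 Hek293T cells transiently transfected with a TEAD-responsive element luciferase reporter, plated onto pre-diluted compounds and incubated 24 h at 37 °C/5% CO2. Luminescence read after SteadyLite addition; % inhibition from RLU relative to vehicle (0%) and a positive control inhibitor (100%), giving IC50.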

SMILES | EC50 [1] [nM] | EC50 [2] [nM] | IC50 [3] [nM] | IC50 ([3]; Homo sapiens, HEK-293T, 24 h) [nM]
FC(F)(F)c1ccc(N2CC(C3CC(Br)=NO3)Cc3ccccc32)cc1 (single isomer, unassigned) [Cpd. No. 194(Dia1)-En1, 3-bromo-5-(1-(4-(trifluoromethyl)phenyl)-1,2,3,4-tetrahydroquinolin-3-yl)-4,5-dihydroisoxazole] | < 1000 | < 1000 | < 1000 | 
C=CC(=O)NC1Cc2c(C#N)cccc2N(c2ccc(C(F)(F)F)cc2)C1 (stereo not drawn) [compound 078, N-(5-cyano-1-(4-(trifluoromethyl)phenyl)-1,2,3,4-tetrahydroquinolin-3-yl)acrylamide] | < 1000 | < 1000 |  | < 1000
C=CC(=O)NC1Cc2c(OC)cccc2N(c2ccc(C(F)(F)F)cc2)C1 (stereo not drawn) [compound 073, N-(5-methoxy-1-(4-(trifluoromethyl)phenyl)-1,2,3,4-tetrahydroquinolin-3-yl)acrylamide] | < 1000 |  |  | < 1000
C=CC(=O)NCC1Cc2ccccc2N(c2ccc(C(F)F)nc2)C1 (stereo not drawn) [compound 149, N-((1-(6-(difluoromethyl)pyridin-3-yl)-1,2,3,4-tetrahydroquinolin-3-yl)methyl)acrylamide] | 1000 to 10000 | 1000 to 10000 |  | < 1000
C=CC(=O)NC1Cc2c(Cc3cccnc3)cccc2N(c2ccc(C(F)(F)F)cc2)C1 (stereo not drawn) [compound 059, N-(5-(pyridin-3-yl-methyl)-1-(4-(trifluoromethyl)phenyl)-1,2,3,4-tetrahydroquinolin-3-yl)acrylamide] | < 1000 |  |  | < 1000
C=CC(=O)NC1Cc2c(CO)cccc2N(c2ccc(C(F)(F)F)cc2)C1 (stereo not drawn) [compound 139, N-(5-(hydroxymethyl)-1-(4-(trifluoromethyl)phenyl)-1,2,3,4-tetrahydroquinolin-3-yl)acrylamide] | < 1000 | < 1000 |  | < 1000
C=CC(=O)NC(C)C1Cc2ccccc2N(c2ccc(C(F)(F)F)cc2)C1 (stereo not drawn) [Cpd. No. 192, N-(1-(1-(4-(trifluoromethyl)phenyl)-1,2,3,4-tetrahydroquinolin-3-yl)ethyl)acrylamide] | < 1000 | < 1000 |  | < 1000
C=CC(=O)NCC1Cc2c(N)cccc2N(c2ccc(C(F)(F)F)cc2)C1 (stereo not drawn) [Cpd. No. 153, N-((5-amino-1-(4-(trifluoromethyl)phenyl)-1,2,3,4-tetrahydroquinolin-3-yl)methyl)acrylamide] | < 1000 | < 1000 |  | < 1000
C=CC(=O)NC1Cc2ccccc2N(c2ccc(SC(F)(F)F)cc2)C1 (stereo not drawn) [compound 030, N-(1-(4-((trifluoromethyl)thio)phenyl)-1,2,3,4-tetrahydroquinolin-3-yl)acrylamide] | < 1000 |  |  | < 1000
CC(=O)NCC1Cc2c(C#N)cccc2N(c2ccc(C(F)(F)F)cc2)C1 (stereo not drawn) [Cpd. No. 154, N-((5-cyano-1-(4-(trifluoromethyl)phenyl)-1,2,3,4-tetrahydroquinolin-3-yl)methyl)acetamide] | < 1000 | 1000 to 10000 |  | < 1000
CC(=O)NCC1Cc2c(N)cccc2N(c2ccc(C(F)(F)F)cc2)C1 (stereo not drawn) [compound 150, N-((5-amino-1-(4-(trifluoromethyl)phenyl)-1,2,3,4-tetrahydroquinolin-3-yl)methyl)acetamide] | < 1000 | < 1000 |  | < 1000
C=CC(=O)NC1Cc2ccccc2N(c2ccc(S(F)(F)(F)(F)F)cc2)C1 (stereo not drawn) [compound 023, N-(1-(4-(pentafluoro-λ^6-sulfaneyl)phenyl)-1,2,3,4-tetrahydroquinolin-3-yl)acrylamide] | < 1000 |  |  | < 1000
C=CC(=O)NC1Cc2c(CC#N)cccc2N(c2ccc(C(F)(F)F)cc2)C1 (stereo not drawn) [compound 164, N-(5-(cyanomethyl)-1-(4-(trifluoromethyl)phenyl)-1,2,3,4-tetrahydroquinolin-3-yl)acrylamide] | < 1000 | < 1000 |  | < 1000
C=CC(=O)NC1Cc2ccccc2N(Cc2ccc(C(F)(F)F)cc2)C1 (stereo not drawn) [compound 181, N-(1-(4-(trifluoromethyl)benzyl)-1,2,3,4-tetrahydroquinolin-3-yl)acrylamide] | < 1000 |  |  | < 1000
C=C(F)C(=O)NC1Cc2ccccc2N(c2ccc(C(F)(F)F)cc2)C1 (stereo not drawn) [compound 039, 2-fluoro-N-(1-(4-(trifluoromethyl)phenyl)-1,2,3,4-tetrahydroquinolin-3-yl)acrylamide] | < 1000 | < 1000 |  | < 1000
C=CC(=O)NC1Cc2ncccc2N(c2ccc(C(F)(F)F)cc2)C1 (stereo not drawn) [compound 080, N-(1-(4-(trifluoromethyl)phenyl)-1,2,3,4-tetrahydro-1,5-naphthyridin-3-yl)acrylamide] | < 1000 | < 1000 |  | < 1000
C=CC(=O)NCC1Cc2ccccc2N(c2ccc(C#N)cc2)C1 (stereo not drawn) [compound 147, N-((1-(4-cyanophenyl)-1,2,3,4-tetrahydroquinolin-3-yl)methyl)acrylamide] | < 1000 | < 1000 |  | < 1000
C=CC(=O)NCC1Cc2c(CC#N)cccc2N(c2ccc(C(F)(F)F)cc2)C1 (stereo not drawn) [Cpd. No. 163, N-((5-(cyanomethyl)-1-(4-(trifluoromethyl)phenyl)-1,2,3,4-tetrahydroquinolin-3-yl)methyl)acrylamide] | < 1000 | < 1000 |  | < 1000
C=CC(=O)NCC1Cc2ccccc2N(Cc2ccc(C(F)(F)F)cc2)C1 (stereo not drawn) [compound 184, N-((1-(4-(trifluoromethyl)benzyl)-1,2,3,4-tetrahydroquinolin-3-yl)methyl)acrylamide] | < 1000 |  |  | < 1000
FC(F)(F)c1ccc(N2CC(C3CC(Br)=NO3)Cc3ccccc32)cc1 (stereo not drawn) [Cpd. No. 194, 3-bromo-5-(1-(4-(trifluoromethyl)phenyl)-1,2,3,4-tetrahydroquinolin-3-yl)-4,5-dihydroisoxazole] | < 1000 | ≥ 10000 |  | < 1000
C=CC(=O)NCC1Cc2ccccc2N([C@H]2CC[C@H](C(F)(F)F)CC2)C1 (stereo partly drawn) [compound 143, trans-N-((1-(4-(trifluoromethyl)cyclohexyl)-1,2,3,4-tetrahydroquinolin-3-yl)methyl)acrylamide] | < 1000 | < 1000 |  | < 1000
C=CC(=O)N(C)CC1Cc2ccccc2N(c2ccc(C(F)(F)F)cc2)C1 (stereo not drawn) [compound 134, N-methyl-N-((1-(4-(trifluoromethyl)phenyl)-1,2,3,4-tetrahydroquinolin-3-yl)methyl)acrylamide] | < 1000 |  |  | < 1000
C=CC(=O)NC1Cc2c(N)cccc2N(c2ccc(C(F)(F)F)cc2)C1 (stereo not drawn) [compound 075, N-(5-amino-1-(4-(trifluoromethyl)phenyl)-1,2,3,4-tetrahydroquinolin-3-yl)acrylamide] | < 1000 | < 1000 |  | < 1000
C=CC(=O)NC1Cc2ccccc2N(c2ccc(OC(F)(F)F)cc2)C1 (stereo not drawn) [compound 021, N-(1-(4-(trifluoromethoxy)phenyl)-1,2,3,4-tetrahydroquinolin-3-yl)acrylamide] | < 1000 |  |  | < 1000
C=CC(=O)NC1Cc2c(F)cccc2N(c2ccc(C(F)(F)F)cc2)C1 (stereo not drawn) [compound 060, N-(5-fluoro-1-(4-(trifluoromethyl)phenyl)-1,2,3,4-tetrahydroquinolin-3-yl)acrylamide] | < 1000 | < 1000 |  | < 1000
C=CC(=O)NCC1Cc2ccccc2N(c2ccc(C(F)(F)F)cc2F)C1 (stereo not drawn) [compound 113, N-((1-(2-fluoro-4-(trifluoromethyl)phenyl)-1,2,3,4-tetrahydroquinolin-3-yl)methyl)acrylamide] | < 1000 |  |  | < 1000
C=CC(=O)NCC1Cc2c(C)cccc2N(c2ccc(C(F)(F)F)cc2)C1 (stereo not drawn) [compound 128, N-((5-methyl-1-(4-(trifluoromethyl)phenyl)-1,2,3,4-tetrahydroquinolin-3-yl)methyl)acrylamide] | < 1000 |  |  | < 1000
C=CC(=O)NC1Cc2c(C)cccc2N(c2ccc(C(F)(F)F)cc2)C1 (stereo not drawn) [compound 064, N-(5-methyl-1-(4-(trifluoromethyl)phenyl)-1,2,3,4-tetrahydroquinolin-3-yl)acrylamide] | < 1000 |  |  | < 1000
C=CC(=O)NCC1Cc2c(-c3noc(=O)[nH]3)cccc2N(c2ccc(C(F)(F)F)cc2)C1 (stereo not drawn) [compound 167, N-((5-(5-oxo-4,5-dihydro-1,2,4-oxadiazol-3-yl)-1-(4-(trifluoromethyl)phenyl)-1,2,3,4-tetrahydroquinolin-3-yl)methyl)acrylamide] |  |  |  | > 20000
C=CC(=O)NCC1Cc2ccccc2N(C2CCC(F)(F)CC2)C1 (stereo not drawn) [compound 145, N-((1-(4,4-difluorocyclohexyl)-1,2,3,4-tetrahydroquinolin-3-yl)methyl)acrylamide] |  |  |  | < 1000
